From patent US20240254129A1, “HETEROCYCLIC COMPOUNDS AND USES THEREOF” (Kumquat Biosciences Inc., priority 2021, published 2024)

Key:
[1] = target: GST-tagged K-Ras mutant / His-tagged hSOS1 (Homo sapiens, UniProt P01116); experiment: HTRF assay, K-Ras mutant / SOS1 interaction; assay type: binding; details: compound nos. 401-703; read-out: IC50 against mutant Kras
Summary of the method: (§1)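 HTRF read-out (ex 337, em 620 and 665 nm) of Ras–SOS1 equilibrium binding: Eu-anti-GST on GST-K-Ras, XL665-anti-6His on His-hSOS1. Incubation about 10 min or longer; IC50 fitted from emission ratio, compounds in duplicate at 10 μM down to 0.01 μM.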

[2] = target: T1, wildtype Kras / hSOS1 (Homo sapiens, UniProt P01116); experiment: HTRF assay, wildtype Kras / SOS1 interaction; assay type: binding; details: compound nos. 401-703; read-out: IC50 against wildtype Kras
T1 construct: made in house; host or cells: E. coli BL21 (DE3)
Summary of the method: as §1

GST-tagged K-Ras mutant / His-tagged hSOS1, sequence (P01116 whole entry G12D, form open): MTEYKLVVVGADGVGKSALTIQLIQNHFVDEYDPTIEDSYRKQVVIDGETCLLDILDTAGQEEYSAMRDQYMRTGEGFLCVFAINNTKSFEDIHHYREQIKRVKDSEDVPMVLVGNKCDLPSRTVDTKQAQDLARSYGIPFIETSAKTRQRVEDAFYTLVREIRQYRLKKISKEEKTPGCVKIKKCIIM
T1 sequence (P01116 1-188 isoform P01116-2): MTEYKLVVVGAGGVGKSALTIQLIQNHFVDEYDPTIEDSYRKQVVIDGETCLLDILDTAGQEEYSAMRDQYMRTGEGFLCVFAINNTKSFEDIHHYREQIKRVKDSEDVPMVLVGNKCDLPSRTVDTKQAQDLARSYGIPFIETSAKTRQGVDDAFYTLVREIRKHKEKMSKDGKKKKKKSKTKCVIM

| IC50 [1] [nM] | IC50 [2] [nM] | Compound |
| --- | --- | --- |
| < 500 | < 500 | N#Cc1c(N)sc2c(F)ccc(-c3c(Cl)cc4c(N5CC6CCC(C5)O6)nc(OC[C@@]56CCCN5C[C@H](F)C6)nc4c3F)c12 [Compound 473, 4-(4-(8-oxa-3-azabicyclo-[3.2.1]octan-3-yl)-6-chloro-8-fluoro-2-(((2R,7aS)-2-fluorotetrahydro-1H-pyrrol-izin-7a(5H)-yl)methoxy)-quinazolin-7-yl)-2-amino-7-fluorobenzo[b]thiophene-3-carbonitrile] |
| < 500 | < 500 | COC1CCCCN(c2nc(OC[C@@H]3CCCN3C)nc3c(F)c(-c4cccc5sc(N)nc45)c(Cl)cc23)C1 (stereo partly drawn) [Compound 474, 4-(6-chloro-8-fluoro-4-(3-methoxyazepan-1-yl)-2-(((S)-1-methylpyrrolidin-2-yl)methoxy)quinazolin-7-yl)benzo[d]thiazol-2-amine] |
| < 500 | < 500 | CN1CCC[C@H]1COc1nc(N2CCCS(=O)(=O)CC2)c2cc(Cl)c(-c3cccc4sc(N)nc34)c(F)c2n1 [Compound 475, 4-(7-(2-aminobenzo[d]-thiazol-4-yl)-6-chloro-8-fluoro-2-(((S)-1-methyl-pyrrolidin-2-yl)methoxy)-quinazolin-4-yl)-1,4-thiazepane 1,1-dioxide] |
| < 500 | < 500 | N#Cc1c(N)sc2cc(F)cc(-c3c(Cl)cc4c(N5CC6CCC(C5)N6)nc(OC[C@@]56CCCN5C[C@H](F)C6)nc4c3F)c12 [Compound 476, 4-(4-(3,8-diazabicyclo-[3.2.1]octan-3-yl)-6-chloro-8-fluoro-2-(((2R,7aS)-2-fluorotetrahydro-1H-pyrrolizin-7a(5H)-yl)meth-oxy)quinazolin-7-yl)-2-amino-6-fluorobenzo[b]-thiophene-3-carbonitrile] |
| < 500 | < 500 | Nc1nc2c(-c3c(Cl)cc4c(N5CCCS(=O)(=O)CC5)nc(OC[C@@]56CCCN5C[C@H](F)C6)nc4c3F)ccc(F)c2s1 [Compound 477, 4-(7-(2-amino-7-fluoroben-zo-[d]thiazol-4-yl)-6-chloro-8-fluoro-2-(((2R,7aS)-2-fluorotetrahydro-1H-pyrrolizin-7a(5H)-yl)meth-oxy)quinazolin-4-yl)-1,4-thiazepane 1,1-dioxide] |
| > 500 | < 500 | Cc1ccc2cnn(C)c2c1-c1ccc2c(N3CC4CCC(C3)N4)nc(OC[C@@]34CCCN3C[C@H](F)C4)nc2c1F [Compound 478, 4-(3,8-diazabicyclo-[3.2.1]octan-3-yl)-7-(1,6-dimethyl-1H-indazol-7-yl)-8-fluoro-2-(((2R,7aS)-2-fluorotetrahydro-1H-pyrrolizin-7a(5H)-yl)meth-oxy)quinazoline] |
| > 500 | < 500 | Fc1c(Br)c(Cl)cc2c(N3CC4CCC(C3)N4)nc(OC[C@@]34CCCN3C[C@H](F)C4)nc12 [Compound 479, 4-(3,8-diazabicyclo[3.2.1]-octan-3-yl)-7-bromo-6-chloro-8-fluoro-2-(((2R,7aS)-2-fluorotetra-hydro-1H-pyrrolizin-7a(5H)-yl)methoxy)quin-azoline] |
| < 500 | < 500 | Nc1nc2c(-c3c(Cl)cc4c(N5CCC[C@@H](O)CC5)nc(OC[C@@]56CCCN5C[C@H](F)C6)nc4c3F)ccc(F)c2s1 [Compound 480, (4R)-1-(7-(2-amino-7-fluorobenzo[d]thiazol-4-yl)-6-chloro-8-fluoro-2-(((2R,7aS)-2-fluorotetra-hydro-1H-pyrrolizin-7a(5H)-yl)methoxy)quinazolin-4-yl)azepan-4-ol] |
| < 500 | < 500 | CNCC1CN(c2nc(OCC34CCCN3CCC4)nc3c(F)c(-c4ccc(F)c5sc(N)nc45)c(Cl)cc23)CCCO1 (stereo not shown) [Compound 481, 4-(6-chloro-8-fluoro-4-(2-((methylamino)methyl)-1,4-oxazepan-4-yl)-2-((tetra-hydro-1H-pyrrolizin-7a(5H)-yl)methoxy)quinazolin-7-yl)-7-fluorobenzo[d]thiazol-2-amine] |
| > 500 | < 500 | Fc1c(-c2cccc(-c3ccccc3)c2)c(Cl)cc2c(N3CCCCCC3)nc(OCC34CCCN3CCC4)nc12 [Compound 482, 7-([1,1′-biphenyl]-3-yl)-4-(azepan-1-yl)-6-chloro-8-fluoro-2-((tetrahydro-1H-pyrrolizin-7a(5H)-yl)meth-oxy)quinazoline] |
| > 500 | < 500 | Nc1nc2c(-c3cc4c(=O)n(CCN5CCCC5)nc(N5CCCOCC5)c4cc3Cl)ccc(F)c2s1 [Compound 484, 7-(2-amino-7-fluorobenzo-[d]thiazol-4-yl)-6-chloro-4-(1,4-oxazepan-4-yl)-2-(2-(pyrrolidin-1-yl)ethyl)phthal-azin-1(2H)-one] |
| < 500 | < 500 | Nc1nc2c(-c3c(Cl)cc4c(N5CCCC(CO)CC5)nc(OC[C@@]56CCCN5C[C@H](F)C6)nc4c3F)ccc(F)c2s1 (stereo partly drawn) [Compound 485, (1-(7-(2-amino-7-fluoro-benzo[d]thiazol-4-yl)-6-chloro-8-fluoro-2-(((2R,7aS)-2-fluorotetra-hydro-1H-pyrrolizin-7a(5H)-yl)methoxy)quinazolin-4-yl)azepan-4-yl)methanol] |
| > 500 | < 500 | Fc1c(N2CCc3ccccc32)ccc2c(N3CCCCCC3)nc(OCC34CCCN3CCC4)nc12 [Compound 487, 4-(azepan-1-yl)-8-fluoro-7-(indolin-1-yl)-2-((tetra-hydro-1H-pyrrolizin-7a(5H)-yl)methoxy)quin-azoline] |
| < 500 | < 500 | CN(C)CC1(COc2nc(N3CCNCC(F)(F)C3)c3cc(Cl)c(-c4ccc(F)c5sc(N)nc45)c(F)c3n2)CC1 [Compound 489, 4-(6-chloro-4-(6,6-difluoro-1,4-diazepan-1-yl)-2-((1-((dimethylamino)methyl)-cyclopropyl)methoxy)-8-fluoroquinazolin-7-yl)-7-fluorobenzo[d]thiazol-2-amine] |
| > 500 | < 500 | CN1CCC[C@H]1COc1nc(N2CCCC(n3ccnc3)CC2)c2cc(Cl)c(-c3cccc4sc(N)nc34)c(F)c2n1 (stereo partly drawn) [Compound 490, 4-(4-(4-(1H-imidazol-1-yl)-azepan-1-yl)-6-chloro-8-fluoro-2-(((S)-1-methylpyr-rolidin-2-yl)methoxy)quin-azolin-7-yl)benzo[d]thiazol-2-amine] |
| > 500 | < 500 | Nc1nc2ccccc2c(-c2ccc3c(N4CC5CCC(C4)N5)nc(OCC45CCCN4CCC5)nc3c2F)c1Cl [Compound 493, 4-(4-(3,8-diazabicyclo-[3.2.1]octan-3-yl)-8-fluoro-2-((tetrahydro-1H-pyrrol-izin-7a(5H)-yl)methoxy)-quinazolin-7-yl)-3-chloro-quinolin-2-amine] |
| < 500 | < 500 | Nc1nc2c(-c3c(Cl)cc4c(N5CCC6CCC(C5)N6)nc(OCC56CCCN5CCC6)nc4c3F)ccc(F)c2s1 (stereo not shown) [Compound 494, 4-(4-(3,9-diazabicyclo-[4.2.1]nonan-3-yl)-6-chloro-8-fluoro-2-((tetrahydro-1H-pyrrolizin-7a(5H)-yl)meth-oxy)quinazolin-7-yl)-7-fluorobenzo[d]thiazol-2-amine] |
| > 500 | < 500 | N#C/C=C/c1cc2c(N3CC4CCC(C3)N4)nc(OC[C@@]34CCCN3C[C@H](F)C4)nc2c(F)c1-c1ccc(F)c2sc(N)nc12 [Compound 495, (E)-3-(7-(2-amino-7-fluoro-benzo[d]thiazol-4-yl)-4-(3,8-diazabicyclo[3.2.1]octan-3-yl)-8-fluoro-2-(((2R,7aS)-2-fluorotetrahydro-1H-pyrrol-izin-7a(5H)-yl)methoxy)-quinazolin-6-yl)acrylonitrile] |
| < 500 | < 500 | N#CCCc1cc2c(N3CC4CCC(C3)N4)nc(OC[C@@]34CCCN3C[C@H](F)C4)nc2c(F)c1-c1ccc(F)c2sc(N)nc12 [Compound 496, 3-(7-(2-amino-7-fluoroben-zo[d]thiazol-4-yl)-4-(3,8-diazabicyclo[3.2.1]octan-3-yl)-8-fluoro-2-(((2R,7aS)-2-fluorotetrahydro-1H-pyrrol-izin-7a(5H)-yl)methoxy)-quinazolin-6-yl)propane-nitrile] |
| > 500 | < 500 | Nc1cc(-c2ccc3c(N4CC5CCC(C4)N5)nc(OCC45CCCN4CCC5)nc3c2F)c2c(Cl)cccc2n1 [Compound 498, 4-(4-(3,8-diazabicyclo-[3.2.1]octan-3-yl)-8-fluoro-2-((tetrahydro-1H-pyrrol-izin-7a(5H)-yl)methoxy)-quinazolin-7-yl)-5-chloro-quinolin-2-amine] |
| < 500 | < 500 | Nc1nc2c(-c3c(Cl)cc4c(N5CCCCCC5)nc(OC[C@@]56CCCN5C[C@H](F)C6)nc4c3F)ccc(F)c2s1 [Compound 499, 4-(4-(azepan-1-yl)-6-chloro-8-fluoro-2-(((2R,7aS)-2-fluorotetrahydro-1H-pyrrol-izin-7a(5H)-yl)methoxy)-quinazolin-7-yl)-7-fluoro-benzo[d]thiazol-2-amine] |
| < 500 | < 500 | N#Cc1c(N)sc2c(F)ccc(-c3c(Cl)cc4c(N5CC6CCC(C5)N6CC5CC5)nc(OC[C@@]56CCCN5C[C@H](F)C6)nc4c3F)c12 [Compound 500, 2-amino-4-(6-chloro-4-((1R,5S)-8-(cyclopropyl-methyl)-3,8-diazabicyclo-[3.2.1]octan-3-yl)-8-fluoro-2-(((2R,7aS)-2-fluorotetra-hydro-1H-pyrrolizin-7a(5H)-yl)methoxy)quin-azolin-7-yl)-7-fluorobenzo-[b]thiophene-3-carbonitrile] |
| < 500 | > 500 | CN(C)CC1(COc2nc(N3CC4CCC(C3)N4)c3ccc(-c4cc(O)cc5ccccc45)c(F)c3n2)CC1 [Compound 501, 4-(4-(3,8-diazabicyclo-[3.2.1]octan-3-yl)-2-((1-((dimethylamino)methyl)-cyclopropyl)methoxy)-8-fluoroquinazolin-7-yl)naph-thalen-2-ol] |
